Measured values: patent US9187458B2, “Cyanoquinoline derivatives” (Tianjin Hemay Bio-Tech Co., LTD., priority 2010, dated 2015)

Key:
[1] = target: T1, Her2 kinase (Homo sapiens, UniProt P04626); experiment: Inhibition Activity Assay on Her2 Enzyme (ELISA, PGT substrate); assay type: biochemical; conditions: 8 min at 4° C., read-out: Inhibition Activity (EC50) on Her-2
T1 construct: purchased Cell Signaling Tech #7382
Description: Inhibition Activity Assay on Her2 Enzyme
1. Her2 kinase, Cell Signaling Tech, #7382, Lot. 2, reserved at −80° C.;
2. PBST: PBS+0.05% (v/v) Tween 20;
3. Confining liquid: 3% of BSA in PBS;
4. HEPEs buffer (2×): 50 mM HEPEs, 20 mM MgCl2, 0.1 mM MnCl2, 0.2 mM Na3VO4, adjusted to pH of 7.4 with NaOH;
5. PGT, Sigma, Cat#P0275): 2 mg/ml of stock solution was prepared by dissolving PBS, reserved at −20° C.
6. ATP: […] of stock solution was prepared by dissolving ddH2O, reserved at −20° C.;
7. Mice anti-phosphorylation tyrosine-HRP: Invitrogen-037720, 0.5 mg/ml, reserved at 4° C.;
8. TMB: Cell Signaling Tech, Cat #7004L;
9. DTT: 2.5 M of stock solution was prepared with ddH2O, reserved at −20° C. Before use, 2×HEPEs buffer was added in the solution to the final concentration of 1.25 mM.
1. 2 mg/ml of PGT was diluted with PBS to 0.2 mg/ml. 60 μl of the resulting solution was added in each well. The elisa plate was placed in a refrigerator at 4° C. and coated overnight;
2. The coating solution was discarded to stop the coating. The plate was washed four times with PBS, and then beaten to dryness;
3. The elisa plate was placed in a refrigerator at 4° C., drained out and stood for 3h.
4. […] of aqueous solution of each compound was diluted with ddH2O to a desirable concentration. Then, the solution was added in the corresponding elisa well by 25 μl/well;
5. 2 nM of ATP solution was diluted with ddH2O to 25 folds and then sufficiently mixed. The resulting solution was separately added in each elisa well by 25 μl per well (25 μl ddH2O was added in the negative control);
6. Her2 kinase was diluted with 2×TKB to 800 folds. The resulting solution was added in the elisa well by 50 μl per well. Then, the enzyme reaction began. Moreover, the elisa plate was immediately placed in a micro-oscillator. The reaction is carried out for 8 min at the temperature of 4° C.;
7. 2% of SDS was added in the elisa well to stop the reaction by adding 100 μl of SDS in each well. The solution was sufficiently mixed on the micro-oscillator to sufficiently mix for about 5 min;
8. The reaction solution was sucked out. The plate was washed four times with PBST. After the plate was beaten to dryness, 0.25 μg/ml of mice anti-phosphorylation tyrosine-HRP which was diluted with confining liquid was added in the plate by 100 μl per well, and then reacted for 30 min at the room temperature.
9. The antibody reaction solution was sucked out. The plate was washed six times with PBST. After the plate was beaten to dryness, TMB peroxidase substrate was added in the plate with 100 μl/well, and then reacted in the dark for 15 min at the room temperature;
10. 100 μl of 2N H2SO4 was added in the solution to stop the chromogenic reaction. After the bubbles were cleansed, the solution was measured in elisa at 450 nm.
OD values were converted in relative inhibition ratios according to following formula: Relative inhibition ratio=[1−(experiment values−NC mean values)/(PC mean values−NC mean values)]×100%

[2] = system: CCRF-CEM/T cells; experiment: CCRF-CEM/T Cell Growth Inhibition Test (MTT Assay); assay type: cell-based; conditions: Homo sapiens, CCRF-CEM/T cells (resistant to paclitaxel), 72 h incubation
How it was run: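 Human acute lymphocytic leukemia CCRF-CEM/T suspension cells, 20000 per well, exposed to compound for 72 h at 37 °C, 5% CO2. MTT added for 3 h, formazan dissolved in SDS/isobutanol/HCl, OD read at 570 nm. IC50 is the concentration giving 50% growth inhibition, from fitted inhibition ratios.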

[3] = system: SK-OV-3 cells; experiment: SK-OV-3 Cell Growth Inhibition Test (MTT Assay); assay type: cell-based; conditions: Homo sapiens, 72 h incubation
How it was run: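 SK-OV-3 human ovarian cancer cells in McCoy's 5A/10% FBS were seeded at 4000 cells/well, then exposed to compound for 72 h at 37° C, 5% CO2. Viability was read by MTT (0.5 mg/ml, 3 h) and OD at 490 nm. IC50 = concentration giving 50% inhibition from fitted inhibition ratios.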

[4] = system: Fadu cells; experiment: Fadu Cell Growth Inhibition Test (MTT Assay); assay type: cell-based; conditions: Homo sapiens, 72 h incubation
How it was run: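 Fadu head and neck cancer cells in EMEM + 10% FBS, 6000 cells/well, dosed next day and incubated 72 h at 37 °C, 5% CO2. MTT 0.5 mg/ml for 3 h, DMSO solubilization, OD at 490 nm; inhibition ratio from positive and negative controls, IC50 from fitted curve.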

T1 sequence (P04626 676-1255 limits assumed): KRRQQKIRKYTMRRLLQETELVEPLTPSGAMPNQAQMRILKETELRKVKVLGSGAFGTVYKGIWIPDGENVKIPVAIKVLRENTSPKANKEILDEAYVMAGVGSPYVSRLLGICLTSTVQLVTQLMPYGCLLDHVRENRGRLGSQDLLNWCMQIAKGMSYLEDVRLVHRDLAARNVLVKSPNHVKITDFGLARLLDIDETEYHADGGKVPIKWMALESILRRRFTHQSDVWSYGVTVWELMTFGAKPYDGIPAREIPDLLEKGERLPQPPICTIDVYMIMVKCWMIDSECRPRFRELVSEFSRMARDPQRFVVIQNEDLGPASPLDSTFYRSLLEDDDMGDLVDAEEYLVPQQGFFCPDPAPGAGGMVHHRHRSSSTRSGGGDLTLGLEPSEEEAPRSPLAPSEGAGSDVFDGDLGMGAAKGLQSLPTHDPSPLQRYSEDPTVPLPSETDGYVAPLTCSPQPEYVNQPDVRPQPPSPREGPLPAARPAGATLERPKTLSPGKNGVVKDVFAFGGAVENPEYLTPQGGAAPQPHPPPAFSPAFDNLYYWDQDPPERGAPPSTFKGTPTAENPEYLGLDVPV

Structure (SMILES)	EC50 [1]	IC50 [2]	IC50 [3]	IC50 [4]
CN(C)C/C=C/C(=O)Nc1cc2c(Nc3ccc(OCc4ccccn4)c(Cl)c3)c(C#N)cnc2cc1OC1CCOC1 (stereo not drawn) [Example 21, (E)-N-(4-(3-CHLORO-4-(PYRIDIN-2-YL-METHOXY)PHENYLAMINO)-3-CYANO-7-(TETRAHYDROFURAN-3-YL-OXY)QUINOLIN-6-YL)-4-(DIMETHYLAMINO)-BUT-2-ENAMIDE]	234 nM			
CN(C)C/C=C/C(=O)Nc1cc2c(Nc3ccc(OCc4ccccn4)c(Cl)c3)c(C#N)cnc2cc1O[C@H]1CCOC1 [Example 138, (S,E)-N-(4-(3-CHLORO-4-(PYRIDIN-2-YL-METHOXY)PHENYLAMINO)-3-CYANO-7-(TETRAHYDROFURAN-3-YL-OXY)QUINOLIN-6-YL)-4-(DIMETHYLAMINO)-BUT-2-ENAMIDE]	244 nM	5600 nM	457 nM	101 nM
CN(C)C/C=C/C(=O)Nc1cc2c(Nc3ccc(OCc4cccc(F)c4)c(Cl)c3)c(C#N)cnc2cc1OC1CCOC1 (stereo not drawn) [Example 9, (E)-N-(4-(4-(3-FLUOROBENZYLOXY)-3-CHLOROPHENYLAMINO)-3-CYANO-7-(TETRAHYDROFURAN-3-YL-OXY)QUINOLIN-6-YL)-4-(DIMETHYLAMINO)-BUT-2-ENAMIDE]	221 nM		469 nM	219 nM

The next molecules have a lower EC50 [1] than those just listed; values first:

EC50 [1]	IC50 [2]	IC50 [3]	Structure (SMILES)	IC50 [4]
96 nM	9000 nM	195 nM	C#Cc1cccc(Nc2c(C#N)cnc3cc(OC4CCOC4)c(NC(=O)/C=C/CN(C)C)cc23)c1 (stereo not drawn) [Example 5, (E)-N-(3-CYANO-4-(3-ETHYNYLPHENYLAMINO)-7-(TETRAHYDROFURAN-3-YL-OXY)QUINOLIN-6-YL)-4-(DIMETHYLAMINO)-BUT-2-ENAMIDE]	
161 nM	5800 nM	409 nM	CN(C)C/C=C/C(=O)Nc1cc2c(Nc3ccc(F)c(Cl)c3)c(C#N)cnc2cc1OC1CCOC1 (stereo not drawn) [Example 4, (E)-N-(4-(3-CHLORO-4-FLUOROPHENYLAMINO)-3-CYANO-7-(TETRAHYDROFURAN-3-YL-OXY)QUINOLIN-6-YL)-4-(DIMETHYLAMINO)-BUT-2-ENAMIDE]	331 nM
110 nM	7900 nM	286 nM	C#Cc1cccc(Nc2c(C#N)cnc3cc(O[C@H]4CCOC4)c(NC(=O)/C=C/CN(C)C)cc23)c1 [Example 140, (S,E)-N-(3-CYANO-4-(3-ETHYNYLPHENYLAMINO)-7-(TETRAHYDROFURAN-3-YL-OXY)QUINOLIN-6-YL)-4-(DIMETHYLAMINO)-BUT-2-ENAMIDE]	
